# Experimental data: patent US4965280A, “Antifungal carbinols” (E. I. Du Pont de Nemours and Company, priority 1989, dated 1990)
# Tests used:
# IVY MORNINGLORY = test: Test D; format: in vivo, Ipomoea hederacea
# PURPLE NUTSEDGE = test: Test D; format: in vivo, Cyperus rotundus
# BARNYARDGRASS = test: Test D; format: in vivo, Echinochloa crus-galli
# Protocol: (§1) The Corn and Sorghum Herbicide Test included the following species in both the preemergence and postemergence evaluations:
# (§2) Postemergence plantings were grown in Sassafras sandy loam soil. Corn and soybeans were grown in separate 25 cm diameter containers. Sorghum and the seven grass weed species were grown in two 18 cm diameter containers, 4 species per container. The seven broadleaf weed species were also grown in two 18 cm diameter containers, 4 species in one container, 3 species in the second container. One additional planting of corn in an 18 cm diameter container was made. The soil surface of this additional container of corn was covered with the absorbent, perlite, before spray treatment so that test chemicals would enter the plant only via the foliage. The plants were grown 10-21 days, dependent upon the species and then sprayed postemergence with the test chemicals dissolved in a nonpytotoxic solvent.
# (§3) Preemergence plantings were grown in fertilized Tama silt loam soil. These plantings are identical to those described in the postemergence section, with the exception of the corn planting having perlite covering the soil surface. These plantings were made the day of or the day before spraying the test chemicals dissolved in a nonphytotoxic solvent.
# (§4) Treated plants and controls were maintained in the greenhouse for 2 to 4 weeks. Visual planting response ratings were made on a percentage scale of 0 to 100 in comparison with a control where 0=no injury, and 100=death.
# JOHNSONGRASS = test: Test D; format: in vivo, Sorghum halepense
# LADY SMARTWEED = test: Test D; format: in vivo, Polygonum persicaris
# Protocol: as §1, §2, §3, §4
# JIMSONWEED = test: Test D; format: in vivo, Datura stramonium
# LAMBSQUARTER = test: Test D; format: in vivo, Chenopodium album
# PERLITE CORN = test: Test D, soil covered with perlite; format: in vivo, Zea mays
# Protocol: as §1, §2, §4
compound,measurement,setting,value
C=C(c1ccccc1Cl)C(O)(Cn1cncn1)c1ccc(F)cc1F (stereo not shown) [Example 35],plant response,IVY MORNINGLORY; POSTEMERGENCE 0250 GM/HA,20%
same,plant response,IVY MORNINGLORY; POSTEMERGENCE 0500 GM/HA,30%
same,plant response,IVY MORNINGLORY; PREEMERGENCE 0064 GM/HA,0%
same,plant response,IVY MORNINGLORY; PREEMERGENCE 0125 GM/HA,0%
same,plant response,IVY MORNINGLORY; PREEMERGENCE 0250 GM/HA,0%
same,plant response,IVY MORNINGLORY; PREEMERGENCE 0500 GM/HA,30%
same,plant response,PURPLE NUTSEDGE; POSTEMERGENCE 0250 GM/HA,0%
same,plant response,PURPLE NUTSEDGE; POSTEMERGENCE 0500 GM/HA,0%
same,plant response,PURPLE NUTSEDGE; PREEMERGENCE 0125 GM/HA,0%
same,plant response,PURPLE NUTSEDGE; PREEMERGENCE 0250 GM/HA,0%
same,plant response,PURPLE NUTSEDGE; PREEMERGENCE 0500 GM/HA,50%
same,plant response,BARNYARDGRASS; POSTEMERGENCE 0250 GM/HA,40%
same,plant response,BARNYARDGRASS; POSTEMERGENCE 0500 GM/HA,60%
same,plant response,BARNYARDGRASS; PREEMERGENCE 0064 GM/HA,0%
same,plant response,BARNYARDGRASS; PREEMERGENCE 0125 GM/HA,60%
same,plant response,BARNYARDGRASS; PREEMERGENCE 0250 GM/HA,40%
same,plant response,BARNYARDGRASS; PREEMERGENCE 0500 GM/HA,100%
same,plant response,JOHNSONGRASS; POSTEMERGENCE 0250 GM/HA,0%
same,plant response,JOHNSONGRASS; POSTEMERGENCE 0500 GM/HA,50%
same,plant response,JOHNSONGRASS; PREEMERGENCE 0064 GM/HA,30%
same,plant response,JOHNSONGRASS; PREEMERGENCE 0125 GM/HA,30%
same,plant response,JOHNSONGRASS; PREEMERGENCE 0250 GM/HA,100%
same,plant response,JOHNSONGRASS; PREEMERGENCE 0500 GM/HA,100%
same,plant response,LADY SMARTWEED; POSTEMERGENCE 0250 GM/HA,50%
same,plant response,LADY SMARTWEED; POSTEMERGENCE 0500 GM/HA,50%
same,plant response,LADY SMARTWEED; PREEMERGENCE 0064 GM/HA,0%
same,plant response,LADY SMARTWEED; PREEMERGENCE 0125 GM/HA,30%
same,plant response,LADY SMARTWEED; PREEMERGENCE 0250 GM/HA,50%
same,plant response,LADY SMARTWEED; PREEMERGENCE 0500 GM/HA,100%
same,plant response,JIMSONWEED; POSTEMERGENCE 0250 GM/HA,20%
same,plant response,JIMSONWEED; POSTEMERGENCE 0500 GM/HA,20%
same,plant response,JIMSONWEED; PREEMERGENCE 0064 GM/HA,0%
same,plant response,JIMSONWEED; PREEMERGENCE 0125 GM/HA,0%
same,plant response,JIMSONWEED; PREEMERGENCE 0250 GM/HA,80%
same,plant response,JIMSONWEED; PREEMERGENCE 0500 GM/HA,30%
same,plant response,LAMBSQUARTER; POSTEMERGENCE 0250 GM/HA,0%
same,plant response,LAMBSQUARTER; POSTEMERGENCE 0500 GM/HA,20%
same,plant response,LAMBSQUARTER; PREEMERGENCE 0064 GM/HA,30%
same,plant response,LAMBSQUARTER; PREEMERGENCE 0125 GM/HA,30%
same,plant response,LAMBSQUARTER; PREEMERGENCE 0250 GM/HA,60%
same,plant response,LAMBSQUARTER; PREEMERGENCE 0500 GM/HA,80%
same,plant response,PERLITE CORN; POSTEMERGENCE 0250 GM/HA,0%
same,plant response,PERLITE CORN; POSTEMERGENCE 0500 GM/HA,0%
"C=C(c1ccccc1Cl)C(O)(Cn1cncn1)c1ccc(Cl)cc1Cl (stereo not shown) [Example 33, 2-(2,4-Dichlorophenyl)-3-(2-chlorophenyl)-1-(1H-1,2,4-triazol-1-yl)-3-buten-2-ol]",plant response,IVY MORNINGLORY; POSTEMERGENCE 0250 GM/HA,0%
same,plant response,IVY MORNINGLORY; POSTEMERGENCE 0500 GM/HA,0%
same,plant response,IVY MORNINGLORY; POSTEMERGENCE 1000 GM/HA,0%
same,plant response,IVY MORNINGLORY; PREEMERGENCE 0250 GM/HA,0%
same,plant response,IVY MORNINGLORY; PREEMERGENCE 0500 GM/HA,0%
same,plant response,IVY MORNINGLORY; PREEMERGENCE 1000 GM/HA,0%
same,plant response,PURPLE NUTSEDGE; POSTEMERGENCE 0250 GM/HA,0%
same,plant response,PURPLE NUTSEDGE; POSTEMERGENCE 0500 GM/HA,0%
same,plant response,PURPLE NUTSEDGE; POSTEMERGENCE 1000 GM/HA,0%
same,plant response,PURPLE NUTSEDGE; PREEMERGENCE 0250 GM/HA,0%
same,plant response,PURPLE NUTSEDGE; PREEMERGENCE 0500 GM/HA,0%
same,plant response,PURPLE NUTSEDGE; PREEMERGENCE 1000 GM/HA,0%
same,plant response,BARNYARDGRASS; POSTEMERGENCE 0250 GM/HA,0%
same,plant response,BARNYARDGRASS; POSTEMERGENCE 0500 GM/HA,0%
same,plant response,BARNYARDGRASS; POSTEMERGENCE 1000 GM/HA,0%
same,plant response,BARNYARDGRASS; PREEMERGENCE 0250 GM/HA,0%
same,plant response,BARNYARDGRASS; PREEMERGENCE 0500 GM/HA,0%
same,plant response,BARNYARDGRASS; PREEMERGENCE 1000 GM/HA,0%
same,plant response,JOHNSONGRASS; POSTEMERGENCE 0250 GM/HA,0%
same,plant response,JOHNSONGRASS; POSTEMERGENCE 0500 GM/HA,0%
same,plant response,JOHNSONGRASS; POSTEMERGENCE 1000 GM/HA,0%
same,plant response,JOHNSONGRASS; PREEMERGENCE 0250 GM/HA,0%
same,plant response,JOHNSONGRASS; PREEMERGENCE 0500 GM/HA,0%
same,plant response,JOHNSONGRASS; PREEMERGENCE 1000 GM/HA,0%
same,plant response,LADY SMARTWEED; POSTEMERGENCE 0250 GM/HA,0%
same,plant response,LADY SMARTWEED; POSTEMERGENCE 0500 GM/HA,0%
same,plant response,LADY SMARTWEED; POSTEMERGENCE 1000 GM/HA,0%
same,plant response,LADY SMARTWEED; PREEMERGENCE 0250 GM/HA,0%
same,plant response,LADY SMARTWEED; PREEMERGENCE 0500 GM/HA,0%
same,plant response,LADY SMARTWEED; PREEMERGENCE 1000 GM/HA,0%
same,plant response,JIMSONWEED; POSTEMERGENCE 0250 GM/HA,0%
same,plant response,JIMSONWEED; POSTEMERGENCE 0500 GM/HA,0%
same,plant response,JIMSONWEED; POSTEMERGENCE 1000 GM/HA,0%
same,plant response,JIMSONWEED; PREEMERGENCE 0250 GM/HA,0%
same,plant response,JIMSONWEED; PREEMERGENCE 0500 GM/HA,0%
same,plant response,JIMSONWEED; PREEMERGENCE 1000 GM/HA,0%
same,plant response,LAMBSQUARTER; POSTEMERGENCE 0250 GM/HA,0%
same,plant response,LAMBSQUARTER; POSTEMERGENCE 0500 GM/HA,0%
same,plant response,LAMBSQUARTER; POSTEMERGENCE 1000 GM/HA,0%
same,plant response,LAMBSQUARTER; PREEMERGENCE 0250 GM/HA,0%
same,plant response,LAMBSQUARTER; PREEMERGENCE 0500 GM/HA,0%
same,plant response,LAMBSQUARTER; PREEMERGENCE 1000 GM/HA,0%
same,plant response,PERLITE CORN; POSTEMERGENCE 0250 GM/HA,0%
same,plant response,PERLITE CORN; POSTEMERGENCE 0500 GM/HA,0%
same,plant response,PERLITE CORN; POSTEMERGENCE 1000 GM/HA,0%
